Source: BindingDB's records for doi:10.1016/j.bmcl.2003.11.047 (National Chung-Hsing University, 2004)

Target: Phospholipase A2 (Naja mossambica)
Assay: Binding affinity against phospholipase A2 of Naja mocambique mocambique

Ki [µM]	Structure (SMILES)
4	CCCCCCCCNC(=O)Oc1cccc(OC(=O)NCCCCCCCC)c1 [Octyl-carbamic acid 3-octylcarbamoyloxy-phenyl ester]
15	CCCCCCCCNC(=O)Oc1ccc(OC(=O)NCCCCCCCC)cc1 [Octyl-carbamic acid 4-octylcarbamoyloxy-phenyl ester]
